Test results published in paper PMC6161602, “Synthesis and characterisation of (Z)-styrylbenzene derivatives as potential selective anticancer agents” (Journal of Enzyme Inhibition and Medicinal Chemistry, 2018).

What was measured:
[1] = tested on: MGC-803 cells; assay: MTT cell growth inhibition assay, MGC-803; assay type: cell-based, human; conditions: MTT, 48 h incubation, MGC-803
From the text: (§1) All human cell lines were used in this study. MGC-803 late-stage differentiation gastric cancer cell, A549 lung cancer cell, HepG2 hepatoma cell, AGS gastric cancer cell, BEL-7402 liver cancer cell, HCT-116 colorectal cancer cell, HeLa cervical cancer cell, SGC-7901 early differentiation gastric cancer cell, L-02 normal liver cell, MCF-7 breast cancer cell, and MCF-10A normal breast cell were initially purchased from American Type Culture Collection (ATCC, Manassas, VA, USA). RPMI-1640 media, Dulbecco’s modified Eagle’s medium (DMEM), and foetal bovine serum (FBS) were provided from Gibco Company (Grand Island, NY, USA). The cells were maintained in DMEM or RPMI-1640, supplemented with 10% FBS, 100 IU/mL penicillin and […] (Grand Island, NY, USA), and at 37 °C in a humidified atmosphere containing 5% CO2.
(§2) Cells were plated in 96-well plates at a density of 30–40% to ensure exponential growth throughout the experimental period, and then allowed to adhere for 1 day[21]. Next, the cells were treated with four serial concentrations (1, 10, 50, and 100 µM) of each compound. Taxol, CA-4, and CA-4P (phosphorylated form of CA-4) were used as positive controls. After 48 h incubation, MTT solution was added to each well at a final concentration of 2 mg/mL, and incubated for an additional 4 h. Next, the MTT solution was removed and 150 µL of dimethyl sulphoxide (DMSO)/well was added (Sigma-Aldrich, St Louis, MO, USA). The plates were shaken vigorously at RT to ensure complete solubilisation, and absorption at 492 nm was determined.
(§3) According to standard protocol, preliminary in vitro anti-proliferative activities of the synthesised compounds were evaluated by MTT assay, using nine human cancer cell lines (MGC-803, A549, HepG2, AGS, BEL-7402, HCT116, HeLa, SGC-7901, and MCF-7) and two normal human cell lines (L-02 and MCF-10A), and compared with those of CA-4, CA-4P, and taxol.

[2] = tested on: A549 lung cancer cell; assay: MTT cell growth inhibition assay, A549; assay type: cell-based, human; conditions: MTT, 48 h incubation, A549
From the text: as §1, §2, §3

[3] = tested on: HepG2 hepatoma cell; assay: MTT cell growth inhibition assay, HepG-2; assay type: cell-based, human; conditions: MTT, 48 h incubation, HepG-2
From the text: as §1, §2, §3

[4] = tested on: AGS cells; assay: MTT cell growth inhibition assay, AGS; assay type: cell-based, human; conditions: MTT, 48 h incubation, AGS
From the text: as §1, §2, §3

[5] = tested on: BEL-7402 cells; assay: MTT cell growth inhibition assay, BEL-7402; assay type: cell-based, human; conditions: MTT, 48 h incubation, Bel-7402
From the text: as §1, §2, §3

[6] = tested on: HCT116 cells; assay: MTT cell growth inhibition assay, HCT116; assay type: cell-based, human; conditions: MTT, 48 h incubation, HCT116
From the text: as §1, §2, §3

[7] = tested on: L-02 normal liver cell; assay: MTT cell growth inhibition assay, L-02 (normal); assay type: cell-based, human; conditions: 48 h incubation, L-02 normal cells
From the text: as §1, §2, §3

[8] = tested on: HeLa cervical cancer cell; assay: MTT cell growth inhibition assay, HeLa; assay type: cell-based, human; conditions: 48 h incubation
From the text: as §1, §2, §3

[9] = tested on: SGC-7901 early differentiation gastric cancer cell; assay: MTT cell growth inhibition assay, SGC-7901; assay type: cell-based, human; conditions: 48 h incubation
From the text: as §1, §2, §3

[10] = tested on: MCF-10A normal breast cell; assay: MTT cell growth inhibition assay, MCF-10A (normal); assay type: cell-based, human; conditions: 48 h incubation, MCF-10A normal cells
From the text: as §1, §2, §3

[11] = tested on: MCF-7 breast cancer cell; assay: MTT cell growth inhibition assay, MCF-7; assay type: cell-based, human; conditions: MTT, 48 h incubation, MCF-7
From the text: as §1, §2, §3

| Molecule | IC50 ([1]; Homo sapiens, MGC-803, 48 h) [µM] | IC50 ([2]; Homo sapiens) [µM] | IC50 ([3]; Homo sapiens, HepG2) [µM] | IC50 ([4]; Homo sapiens) [µM] | IC50 ([5]; Homo sapiens) [µM] | IC50 ([6]; Homo sapiens, HCT-116) [µM] | IC50 ([7]; Homo sapiens) [µM] | IC50 ([8]; Homo sapiens) [µM] | IC50 ([9]; Homo sapiens) [µM] | IC50 ([10]; Homo sapiens) [µM] | IC50 ([11]; Homo sapiens, MCF7) [µM] | melting point [°C] | other results |
| --- | --- | --- | --- | --- | --- | --- | --- | --- | --- | --- | --- | --- | --- |
| Cc1ccc(/C=C(\C#N)c2ccc(C)cc2)cc1 [Compound 13a, (Z)-2,3-Di-p-tolylacrylonitrile] | > 100 | > 100 | > 100 | 27.9 ± 5.84 | > 100 | > 100 | > 100 | > 100 | > 100 | > 100 | > 100 | 68 to 70 |  |
| CCc1ccc(/C=C(\C#N)c2ccc(C)cc2)cc1 [Compound 13b, (Z)-3-(4-Ethylphenyl)-2-(p-tolyl)acrylonitrile] | > 100 | > 100 | > 100 | 26.5 ± 3.89 | > 100 | > 100 | > 100 | > 100 | > 100 | 85.7 ± 3.12 | 35 ± 14.8 | 112 to 114 |  |
| COc1cc(/C=C(\C#N)c2ccc(C)cc2)cc(OC)c1OC [Compound 13c, (Z)-2-(p-Tolyl)-3-(3,4,5-trimethoxyphenyl)acrylonitrile] | > 100 | > 100 | > 100 | 66.2 ± 3.65 | 77.3 ± 0.26 | 79.2 ± 5.21 | > 100 | > 100 | > 100 | > 100 | 33.9 ± 7.3 | 135 to 137 |  |
| Cc1ccc(/C(C#N)=C/c2ccccc2)cc1 [Compound 13d, (Z)-3-Phenyl-2-(p-tolyl)acrylonitrile] | 89.2 ± 3.2 | > 100 | > 100 | > 100 | > 100 | > 100 | > 100 | > 100 | > 100 | > 100 | > 100 | 145 to 147 |  |
| Cc1ccc(/C(C#N)=C/c2cccs2)cc1 [Compound 14a, (Z)-3-(Thiophen-2-yl)-2-(p-tolyl)acrylonitrile] | > 100 | > 100 | > 100 | > 100 | > 100 | > 100 | > 100 | > 100 | > 100 | > 100 | > 100 | 128 to 130 |  |
| Cc1ccc(/C(C#N)=C/c2ccccn2)cc1 [Compound 14b, (Z)-3-(Pyridin-2-yl)-2-(p-tolyl)acrylonitrile] | > 100 | > 100 | > 100 | > 100 | > 100 | > 100 | > 100 | > 100 | > 100 | > 100 | > 100 | 102 to 104 |  |
| (Z)-3-(Naphthalen-1-yl)-2-(3,4,5-trimethoxyphenyl)acrylonitrile [Compound 7c] |  |  |  |  |  |  |  |  |  |  |  |  | IC50 [1]: 3.45 ± 2.11 µM; IC50 [2]: > 100 µM; IC50 [3]: > 100 µM; IC50 [4]: 3.51 ± 0.25 µM; IC50 [5]: 2.53 ± 0.12 µM; IC50 [6]: 4.58 ± 0.42 µM; IC50 [7]: 8.21 ± 0.051 µM; IC50 [8]: > 100 µM; IC50 [9]: > 100 µM; IC50 [10]: 1.03 ± 0.44 µM; IC50 [11]: 2.83 ± 0.35 µM |
